Test results published in US20150126581A1, “MicroRNAs and Uses Thereof” (The University of Western Australia, priority 2012, published 2015).

Tests used:
Format in all cases: cell-based, human
ERBB-2 3′-UTR = test: Dual luciferase reporter gene assay in HeLa cells, ERBB-2 3′-UTR reporter (positive control); conditions: 24 h after transfection, compared to miR-NC
Method: (§1) HeLa cells were seeded in 12-well plates and co-transfected using Lipofectamine 2000 (Invitrogen) with 100 ng of either the negative control (empty), DOHH 3′-UTR or ERBB-2 3′-UTR reporter construct (Genecopoeia™) and 1-2 nM final concentration of pre-miR-331-3p, pre-miR-642-5p, a combination of pre-miR-331-3p and pre-miR-642-5p, or pre-miR-NC per well. Lysates were assayed for Firefly and Renilla luciferase activities 24 h after transfection using the Dual Luciferase Reporter Assay System (Promega) and a Fluostar OPTIMA microplate reader (BMG Labtech), and firefly luciferase activities normalised to Renilla luciferase activities to obtain relative reporter gene activity.

[1] = Dual luciferase reporter gene assay in HeLa cells, negative control (empty) reporter vector; conditions: 24 h after transfection
Text: The dual luciferase (firefly and Renilla) reporter miRNA target clone for the DOHH 3′-UTR (catalogue no. HmiT020194-MT01) and the negative control vector (catalogue no. CmiT000001-MT01), both based on the PETZ-MT01 vector containing a SV40 promoter upstream of the hLuc gene, and a CMV reporter upstream of the hRLuc gene, were sourced from Genecopoeia™ (Rockville, USA). For miRNA target clones, the DOHH 3′-UTR was inserted downstream of the SV40 promoter/firefly luciferase reporter gene. Firefly luciferase was normalised to Renilla′ luciferase for expression and transfection efficiency.
as §1

DOHH protein [2] = test: Western blot of DOHH protein in transfected HeLa cells; conditions: 30 nM precursor miRNA, 3 days post transfection, tubulin loading control
Method: Having established that the DOHH 3′-UTR is a target for hsa-miR-331-3p and hsa-miR-642-5p in reporter gene assays, the effect of hsa-miR-331-3p and/or hsa-miR-642-5p over-expression on DOHH RNA and protein expression in HeLa cells was investigated. Briefly, HeLa cancer cells were seeded into 6 well plates or 10 cm^2 dishes and transfected using Lipofectamine 2000 (Invitrogen) and precursor miRNA molecules at a final concentration of 30 nM. Cells were harvested 24 hours post transfection for total RNA and 3 days post transfection for protein. The effect of hsa-miR-331-3p and hsa-miR-642-5p over-expression on DOHH RNA and protein production was analysed by RT-PCR and Western blot as described below.
Cytoplasmic protein extracts of the transfected HeLa cells were prepared as described previously (Giles et al. (2003) J Biol Chem 278(5), 2937-2946), resolved on NuPAGE 4-12% Bis Tris gels or NuPAGE 10% Bis Tris gels (Invitrogen) and transferred to PVDF membranes (Roche). Membranes were blocked in 5% skim milk/TBST and probed with anti-tubulin rat polyclonal antibody (1:1,000, Abcam ab6161 100) as a loading control and anti-DOHH (C 19) goat polyclonal antibody (1:1000, Santa Cruz Biotechnology sc-55157). […]

HeLa cells = test: xCELLigence cell proliferation assay; conditions: 5000 transfected cells, monitored over 90 hour period, compared to miRNA negative control
Method: The effect of transient miRNA over-expression in HeLa cells on cell proliferation was investigated using the xCELLigence™ System (Roche). Briefly, HeLa cells were grown and transfected with the miRNA negative control, hsa-miR-331-3p and/or hsa-miR-642-5p precursors as described above. Transfected HeLa cells were then trypsinised and counted using the Countess™ Automated cell counter and 5000 transiently transfected HeLa cells were plated in quadruplicate into 16 well E-plates. The cells monitored over a 90 hour period in real time according to the manufacturer's instructions.

[3] = system: 182 nucleotide element of the DOHH 3′-UTR; test: Reporter gene assay in LNCaP and C4-2B prostate cancer cells with 3′UTR, 3′UTR ELEMENT and 3′UTR MINUS ELEMENT constructs; conditions: for Down-regulation of reporter activity from “3′UTR MINUS ELEMENT” construct: LNCaP and C4-2B cells, 182 nucleotide element deleted; for Reporter activity from “3′UTR” and “3′UTR ELEMENT” constructs: both LNCaP and C4-2B cells, relative to miR-NC
Method: Briefly, three reporter gene constructs were prepared using a pmiR-REPORT vector (Ambion) as the backbone. The first construct was the construct described in Example 2, containing the DOHH 3′-UTR downstream of the firefly luciferase reporter gene (labelled “3′UTR”). The second construct contained a DOHH 3′-UTR in which the 182 base pair element had been deleted, downstream of the firefly luciferase reporter gene (labelled “3′UTR MINUS ELEMENT”). The third construct contained the 182 nucleotide element downstream of the firefly luciferase reporter gene (labelled “3′UTR ELEMENT”) (FIG. 6A).
The effect of hsa-miR-331-3p and/or hsa-miR-642-5p on expression from the “3′UTR”, “3′UTR ELEMENT” and “3′UTR MINUS ELEMENT” construct in LNCaP and C4-2B prostate cancer cells was then assessed using the same transfection and assay techniques.

DOHH mRNA = test: qRT-PCR of endogenous DOHH mRNA in transfected DU145 cells; conditions: 24 h after transfection, versus miR-NC
Method: (§2) The effect of hsa-miR-331-3p and/or hsa-miR-642-5p on endogenous DOHH expression in DU145 prostate cancer cells was assessed by co-transfecting the cells with pre-miR-331-3p, pre-miR-642-5p, or pre-miR-NC essentially as described in Examples 2 and 3, and DOHH mRNA levels were assessed by qRT-PCR of DOHH mRNA. Parallel Western blotting experiments were performed to assess DOHH protein levels, as also described above.

DOHH protein [4] = test: Western blot of DOHH protein in transfected DU145 cells; conditions: 48 h after transfection
Method: as §2

For “hsa-miR-331-3p: human miR-331-3p, 5′-GCCCCUGGGCCUAUCCUAGAA-3′ (SEQ ID NO:4); transfected as Ambion Pre-miR precursor PM10881 (listed as RNA, chemistry not given here; listed as Homo sapiens)”, the “ERBB-2 3′-UTR reporter activity” value (ERBB-2 3′-UTR) was “significant reduction in reporter activity”, the “Reporter activity of negative control reporter vector” value [1] was “no significant change in reporter activity” and the “DOHH protein expression (immunoblot)” value (DOHH protein [2]) was “observed to be targeted”. The “HeLa cell proliferation (xCELLigence)” value (HeLa cells) was “inhibit the proliferation of HeLa cells to similar degrees”, the “Down-regulation of reporter activity from “3′UTR MINUS ELEMENT” construct” value [3] was “not observed” and the “Reporter activity from “3′UTR” and “3′UTR ELEMENT” constructs” value [3] was “significantly down-regulated reporter activity”. The “Endogenous DOHH mRNA expression” value (DOHH mRNA) was “significantly reduced expression of endogenous DOHH mRNA” and the “DOHH protein expression (Western blot)” value (DOHH protein [4]) was “inhibited expression of DOHH protein”.

For “hsa-miR-642-5p: human miR-642-5p, 5′-GUCCCUCUCCAAAUGUGUCUUG-3′ (SEQ ID NO:5); transfected as Ambion Pre-miR precursor PM11477 (listed as RNA, chemistry not given here; listed as Homo sapiens)”, the “DOHH protein expression (immunoblot)” value (DOHH protein [2]) was “observed to be targeted”, the “HeLa cell proliferation (xCELLigence)” value (HeLa cells) was “inhibit the proliferation of HeLa cells to similar degrees” and the “Down-regulation of reporter activity from “3′UTR MINUS ELEMENT” construct” value [3] was “not observed”. The “Reporter activity from “3′UTR” and “3′UTR ELEMENT” constructs” value [3] was “significantly down-regulated reporter activity”, the “Endogenous DOHH mRNA expression” value (DOHH mRNA) was “significantly reduced expression of endogenous DOHH mRNA” and the “DOHH protein expression (Western blot)” value (DOHH protein [4]) was “inhibited expression of DOHH protein”.
